# Results taken from patent US20040076974A1, “Liver necrosis predictive genes” (priority 2002, published 2004).
# Read-outs that look alike come from different tables or passages of the source.
# System: Sprague Dawley rats
# Details: for Liver Necrosis / Score (histopathology liver necrosis severity score): rat, intraperitoneal; for Liver Necrosis: 72 hours after treatment; for Score (histopathology liver necrosis severity score): 72 hours, 1 = not remarkable, 2 and higher increasing severity
# Summary of the method: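 Toxicity calls (necrosis present or absent at 72 h) and histopathology scores were correlated with tissue gene expression from Crl:CD Sprague Dawley rats. Animals, usually 3 treated with compound by i.p. route and 3 given vehicle, were killed at 6, 24 or 72 h and tissues frozen immediately in liquid nitrogen.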
structure (smiles),measurement,setting,value
CCC1(c2ccccc2)C(=O)NC(=O)NC1=O [phenobarbital],Liver Toxicity Necrosis Classification,"72 h, dose 20",no
same,Liver Toxicity Necrosis Classification,"72 h, dose 80",no
same,Liver Toxicity Necrosis Classification,"compound-dose group at 72 h, dose 20",no
same,Liver Toxicity Necrosis Classification,"compound-dose group at 72 h, dose 80",no
same,Liver Toxicity Necrosis Classification,"compound-dosegroup at 72 h, dose 20",no
same,Liver Toxicity Necrosis Classification,"compound-dosegroup at 72 h, dose 80",no
same,Liver Necrosis,dose 20 mg/kg,no
same,Score (histopathology liver necrosis severity score),dose 20 mg/kg,1
same,Liver Necrosis,dose 80 mg/kg,no
same,Score (histopathology liver necrosis severity score),dose 80 mg/kg,1
